Values quoted from earlier work in patent US20130136780A1, “CROSSLINKED POLYSACCHARIDE GEL COMPOSITIONS FOR MEDICAL AND COSMETIC APPLICATIONS” (ALLERGAN, INC., priority 2007, published 2013).

Conditions: osteoarthritis patient, intra-articular injection of 40 mg; Selvi et al. 2004

In the case of `CC(C)(C)CC(=O)OCC(=O)[C@@]12OC(C)(C)O[C@@H]1C[C@H]1[C@@H]3CCC4=CC(=O)C=C[C@]4(C)[C@@]3(F)[C@@H](O)C[C@@]12C` [triamcinolone hexacetonide], the “adverse outcome after intra-articular injection (case report)” value is given as “developed acute arthritis induced by the injected triamcinolone crystals”.
